Reference: patent publication US8273774B2, “Phenoxypyridinylamide compounds” (AstraZeneca AB, priority 2008, dated 2012)

Biological target: recombinant Human Phosphodiesterase B2 (PDE4B2) (Homo sapiens, UniProt Q07343)
Test: Human Phosphodiesterase B2 Radiometric Assay
Format: biochemical
Conditions: 0.1 μg/mL recombinant PDE4B2; preincubated at 30 C for 30 min; [3H]cyclic AMP 8 nM, stopped after 20 min; yttrium silicate SPA beads; read-out: PDE4B2 pIC50 (converted)
Method in brief: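 Compounds preincubated 30 min at 30 C with 0.1 μg/mL recombinant PDE4B2 in 50 mM HEPES pH 7.5, 8.3 mM MgCl2, 1.7 mM EGTA, 0.01% Brij 35.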

recombinant Human Phosphodiesterase B2 (PDE4B2), sequence (Q07343 1-564 isoform Q07343-2): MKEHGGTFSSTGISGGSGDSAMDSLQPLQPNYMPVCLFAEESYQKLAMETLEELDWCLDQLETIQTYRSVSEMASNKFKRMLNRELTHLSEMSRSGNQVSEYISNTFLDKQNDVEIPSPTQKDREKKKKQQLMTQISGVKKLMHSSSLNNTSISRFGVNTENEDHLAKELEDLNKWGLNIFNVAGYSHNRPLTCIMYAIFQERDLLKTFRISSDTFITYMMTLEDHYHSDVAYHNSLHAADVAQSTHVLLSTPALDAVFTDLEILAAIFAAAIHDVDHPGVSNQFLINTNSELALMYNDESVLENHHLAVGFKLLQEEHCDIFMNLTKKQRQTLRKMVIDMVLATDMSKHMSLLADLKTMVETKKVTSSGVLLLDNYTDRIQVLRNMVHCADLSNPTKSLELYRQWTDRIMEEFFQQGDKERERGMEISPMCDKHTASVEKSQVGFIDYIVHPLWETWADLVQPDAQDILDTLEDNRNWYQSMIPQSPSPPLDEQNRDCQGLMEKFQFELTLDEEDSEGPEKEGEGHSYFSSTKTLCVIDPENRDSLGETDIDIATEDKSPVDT

SMILES	IC50 [nM]
Cc1nc(C(=O)N[C@H]2CC[C@@H](NC(=O)c3cc(F)cnc3Oc3cccc(-c4cccc(CCCN5CCNCC5)c4)c3)CC2)cs1 [Example 131, N-((1s,4s)-4-(5-fluoro-2-(3′-(3-(piperazin-1-yl)propyl)biphenyl-3-yloxy)nicotinamido)cyclohexyl)-2-methylthiazole-4-carboxamide]	0.126
O=C(N[C@H]1CC[C@@H](NC(=O)c2cc(F)cnc2Oc2cccc(-c3ccc(CCCN4CCNCC4)cc3)c2)CC1)c1cc2ccccn2n1 [Example 132, N-((1s,4s)-4-(5-fluoro-2-(4′-(3-(piperazin-1-yl)propyl)biphenyl-3-yloxy)nicotinamido)cyclohexyl)pyrazolo[1,5-a]pyridine-2-carboxamide]	0.0398
O=C(N[C@H]1CC[C@@H](NC(=O)c2cc(F)cnc2Oc2cccc(-c3ccc(CCCN4CCNCC4)cc3)c2)CC1)c1cc2n(n1)CCC2 [Example 133, N-((1s,4s)-4-(5-fluoro-2-(4′-(3-(piperazin-1-yl)propyl)biphenyl-3-yloxy)nicotinamido)cyclohexyl)-5,6-dihydro-4H-pyrrolo[1,2-b]pyrazole-2-carboxamide]	0.0501
Cc1nc(C(=O)N[C@H]2CC[C@@H](NC(=O)c3cc(F)cnc3Oc3cccc(-c4ccc(CCCN5CCCN(C)CC5)cc4)c3)CC2)cs1 [Example 134, N-((1s,4s)-4-(5-fluoro-2-(4′-(3-(4-methyl-1,4-diazepan-1-yl)propyl)biphenyl-3-yloxy)nicotinamido)cyclohexyl)-2-methylthiazole-4-carboxamide]	0.0631
Cc1nc(C(=O)N[C@H]2CC[C@@H](NC(=O)c3cc(F)cnc3Oc3cccc(-c4ccc(CCCN5CCCNCC5)cc4)c3)CC2)cs1 [Example 135, N-((1s,4s)-4-(2-(4′-(3-(1,4-diazepan-1-yl)propyl)biphenyl-3-yloxy)-5-fluoronicotinamido)cyclohexyl)-2-methylthiazole-4-carboxamide]	0.0501
Cc1nc(C(=O)N[C@H]2CC[C@@H](NC(=O)c3cc(F)cnc3Oc3cccc(-c4ccc(CCCNCCCO)cc4)c3)CC2)cs1 [Example 136, N-((1s,4s)-4-(5-fluoro-2-(4′-(3-(3-hydroxypropylamino)propyl)biphenyl-3-yloxy)nicotinamido)cyclohexyl)-2-methylthiazole-4-carboxamide]	0.1
O=C(N[C@H]1CC[C@@H](NC(=O)c2cc(F)cnc2Oc2cccc(-c3ccc(CCCN4CCNCC4)cc3)c2)CC1)c1cn2c(n1)CCCC2 [Example 137, N-((1s,4s)-4-(5-fluoro-2-(4′-(3-(piperazin-1-yl)propyl)biphenyl-3-yloxy)nicotinamido)cyclohexyl)-5,6,7,8-tetrahydroimidazo[1,2-a]pyridine-2-carboxamide]	0.0501
Cc1cc(C(=O)N[C@H]2CC[C@@H](NC(=O)c3cc(F)cnc3Oc3cccc(-c4ccc(CN5CCSCC5)cc4CN4CCOCC4)c3)CC2)nn1C [Example 138, N-((1s,4s)-4-(1,5-dimethyl-1H-pyrazole-3-carboxamido)cyclohexyl)-5-fluoro-2-(2′-(morpholinomethyl)-4′-(thiomorpholinomethyl)biphenyl-3-yloxy)nicotinamide]	0.0251
Cc1cc(C(=O)N[C@H]2CC[C@@H](NC(=O)c3cc(F)cnc3Oc3cccc(-c4cccc(CCCN5CCN[C@@H](C)C5)c4)c3)CC2)nn1C [Example 139, N-((1s,4s)-4-(1,5-dimethyl-1H-pyrazole-3-carboxamido)cyclohexyl)-5-fluoro-2-(3′-(3-((S)-3-methylpiperazin-1-yl)propyl)biphenyl-3-yloxy)nicotinamide]	0.0794
C[C@@H]1CN(CCCc2ccc(-c3cccc(Oc4ncc(F)cc4C(=O)N[C@H]4CC[C@@H](NC(=O)c5cc6n(n5)CCC6)CC4)c3)cc2)C[C@H](C)N1 [Example 140, N-((1s,4s)-4-(2-(4′-(3-((3S,5R)-3,5-dimethylpiperazin-1-yl)propyl)biphenyl-3-yloxy)-5-fluoronicotinamido)cyclohexyl)-5,6-dihydro-4H-pyrrolo[1,2-b]pyrazole-2-carboxamide]	0.0316
O=C(N[C@H]1CC[C@@H](NC(=O)c2cc(F)cnc2Oc2cccc(-c3ccc(CCCN4CCNCC4)cc3)c2)CC1)c1csc(CO)n1 [Example 141, N-((1s,4s)-4-(5-fluoro-2-(4′-(3-(piperazin-1-yl)propyl)biphenyl-3-yloxy)nicotinamido)cyclohexyl)-2-(hydroxymethyl)thiazole-4-carboxamide]	0.0631
Cc1cc(C(=O)N[C@H]2CC[C@@H](NC(=O)c3cc(F)cnc3Oc3cccc(-c4ccc(CCCN5CCNC[C@H]5C)cc4)c3)CC2)nn1C [Example 142, N-((1s,4s)-4-(1,5-dimethyl-1H-pyrazole-3-carboxamido)cyclohexyl)-5-fluoro-2-(4′-(3-((R)-2-methylpiperazin-1-yl)propyl)biphenyl-3-yloxy)nicotinamide]	0.0251
C[C@@H]1CN(CCCc2ccc(-c3cccc(Oc4ncc(F)cc4C(=O)N[C@H]4CC[C@@H](NC(=O)c5cc6ncccn6n5)CC4)c3)cc2)C[C@H](C)N1 [Example 143, N-((1s,4s)-4-(2-(4′-(3-((3S,5R)-3,5-dimethylpiperazin-1-yl)propyl)biphenyl-3-yloxy)-5-fluoronicotinamido)cyclohexyl)pyrazolo[1,5-a]pyrimidine-2-carboxamide]	0.0794
Cc1csc(C(=O)N[C@H]2CC[C@@H](NC(=O)c3cc(F)cnc3Oc3cccc(-c4ccc(CN5C[C@@H](C)N[C@@H](C)C5)cc4CN4CCOCC4)c3)CC2)n1 [Example 144, N-((1s,4s)-4-(2-(4′-(((3S,5R)-3,5-dimethylpiperazin-1-yl)methyl)-2′-(morpholinomethyl)biphenyl-3-yloxy)-5-fluoronicotinamido)cyclohexyl)-4-methylthiazole-2-carboxamide]	0.0316
C[C@@H]1CN(Cc2ccc(-c3cccc(Oc4ncc(F)cc4C(=O)N[C@H]4CC[C@@H](NC(=O)c5cccc6cccnc56)CC4)c3)c(CN3CCOCC3)c2)C[C@H](C)N1 [Example 146, N-((1s,4s)-4-(2-(4′-(((3S,5R)-3,5-dimethylpiperazin-1-yl)methyl)-2′-(morpholinomethyl)biphenyl-3-yloxy)-5-fluoronicotinamido)cyclohexyl)quinoline-8-carboxamide]	0.0316
C[C@@H]1CN(Cc2ccc(-c3cccc(Oc4ncc(F)cc4C(=O)N[C@H]4CC[C@@H](NC(=O)c5ccc6ccccc6n5)CC4)c3)c(CN3CCOCC3)c2)C[C@H](C)N1 [Example 147, N-((1s,4s)-4-(2-(4′-(((3S,5R)-3,5-dimethylpiperazin-1-yl)methyl)-2′-(morpholinomethyl)biphenyl-3-yloxy)-5-fluoronicotinamido)cyclohexyl)quinoline-2-carboxamide]	0.0501
Cc1csc(C(=O)N[C@H]2CC[C@@H](NC(=O)c3cc(F)cnc3Oc3cccc(-c4ccc(CCCN5CCNCC5)cc4)c3)CC2)n1 [Example 148, N-((1s,4s)-4-(5-fluoro-2-(4′-(3-(piperazin-1-yl)propyl)biphenyl-3-yloxy)nicotinamido)cyclohexyl)-4-methylthiazole-2-carboxamide]	0.0398
C[C@@H]1CN(CCCc2ccc(-c3cccc(Oc4ncc(F)cc4C(=O)N[C@H]4CC[C@@H](NC(=O)c5csc(CO)n5)CC4)c3)cc2)C[C@H](C)N1 [Example 149, N-((1s,4s)-4-(2-(4′-(3-((3S,5R)-3,5-dimethylpiperazin-1-yl)propyl)biphenyl-3-yloxy)-5-fluoronicotinamido)cyclohexyl)-2-(hydroxymethyl)thiazole-4-carboxamide]	0.0316
